Like-named read-outs stand apart in the source and are kept apart here.
Assays:
[1] = biological target: Sigma-1 receptors on Jurkat cell membranes (Homo sapiens (Human), UniProt Q99720); assay: Competitive Radioligand Binding Assay 1, Sigma-1 binding ([3H](+)pentazocine displacement); conditions: sigma-1 receptor affinity; read-out: S1 Ki
Method: Certain compounds were tested for interaction with several receptors by blocking the binding or action of their agonists or antagonists. Some compounds were tested to see whether they interact directly with known cellular receptor or signaling proteins. Compounds can be tested for the ability to displace binding of known agonists or antagonists of a given human receptor that was overexpressed in cell lines or isolated from tissue. Compounds can also be tested for the ability to block downstream signaling induced by agonists or antagonists of a given human receptor. Compounds can be tested for action at 100 known receptors, and it is desirable that specific activity will occur at only a small subset of CNS-relevant receptors.
For Sigma-1 binding, various concentrations of test compounds from 100 μM to 1 nM were used to displace 8 nM [3H](+)pentazocine from endogenous receptors on Jurkat cell membranes (Ganapathy M E et al. 1991, J Pharmacol. Exp. Ther. 289:251-260). 10 μM Haloperidol was used to define non-specific binding. […] (Bowen W D, et al. 1993, Mol. Neuropharmcol 3:117-126). 10 μM Haloperidol was used to define non-specific binding. Reactions were terminated by rapid filtration through Whatman GF/C filters using a Brandel 12R cell harvester followed by two washes with ice-cold buffer. Radioactivity on the dried filter discs was measured using a liquid scintillation analyzer (Tri-Carb 2900TR; PerkinElmer Life and Analytical Sciences). The displacement curves were plotted and the Ki values of the test compounds for the receptor subtypes were determined using GraphPad Prism (GraphPad Software Inc., San Diego, Calif.). The percentage specific binding was determined by dividing the difference between total bound (disintegrations per minute) and nonspecific bound (disintegrations per minute) by the total bound (disintegrations per minute). […]

[2] = biological target: Sigma-2 receptors on membranes from rat cerebral cortex (Rattus norvegicus (Rat), UniProt Q5U3Y7); assay: Competitive Radioligand Binding Assay 1, Sigma-2 binding ([3H]DTG displacement with (+)pentazocine mask); conditions: sigma-2 receptor affinity; read-out: S2 Ki
Sigma-2 receptors on membranes from rat cerebral cortex, sequence (Q5U3Y7 whole entry): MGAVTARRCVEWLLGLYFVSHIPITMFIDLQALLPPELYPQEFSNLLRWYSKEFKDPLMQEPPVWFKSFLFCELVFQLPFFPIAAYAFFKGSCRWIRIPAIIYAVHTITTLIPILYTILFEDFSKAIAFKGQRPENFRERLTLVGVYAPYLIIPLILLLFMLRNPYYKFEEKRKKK
Method: Using the same protocol, some compounds for which membrane trafficking data are given in Table 1 were tested for recognition of sigma-2 receptor. Certain compounds preferentially bind to the sigma-2 receptor.
For Sigma-1 binding, various concentrations of test compounds from 100 μM to 1 nM were used to displace 8 nM [3H](+)pentazocine from endogenous receptors on Jurkat cell membranes (Ganapathy M E et al. 1991, J Pharmacol. Exp. Ther. 289:251-260). 10 μM Haloperidol was used to define non-specific binding. […] (Bowen W D, et al. 1993, Mol. Neuropharmcol 3:117-126). 10 μM Haloperidol was used to define non-specific binding. Reactions were terminated by rapid filtration through Whatman GF/C filters using a Brandel 12R cell harvester followed by two washes with ice-cold buffer. Radioactivity on the dried filter discs was measured using a liquid scintillation analyzer (Tri-Carb 2900TR; PerkinElmer Life and Analytical Sciences). The displacement curves were plotted and the Ki values of the test compounds for the receptor subtypes were determined using GraphPad Prism (GraphPad Software Inc., San Diego, Calif.). The percentage specific binding was determined by dividing the difference between total bound (disintegrations per minute) and nonspecific bound (disintegrations per minute) by the total bound (disintegrations per minute).
Affinities for Sigma-1 and Sigma-2 receptors are typically obtained from published studies using cerebral tissue homogenates with [3H](+)pentazocine to measure displacement from Sigma-1 receptors and [3H] 1,3-Di-(2-tolyl)guanidine in the presence of 300 nM (+)pentazocine to measure displacement from Sigma-2 receptors.

[3] = system: Abeta oligomer-induced membrane trafficking deficits in primary hippocampal neurons; assay: Membrane Trafficking/Exocytosis (MTT) assay, Abeta oligomer effect on neurons; format: cell-based, rat; conditions: membrane trafficking, read-out: EC50 Abeta;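 further: compound potency for inhibiting the Abeta oligomer effect on exocytosis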
Procedure, shortened: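 Rat E18 hippocampal neurons cultured 3 weeks received compound (100 uM to 0.001 nM), then vehicle or Abeta 1-42 oligomers (3 μM total Abeta), for 1-24 h at 37 °C. MTT was added for 1 h, and formazan vesicle exocytosis was quantified by automated imaging with DAPI toxicity check. Tukey-Kramer comparisons were made with N=4.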

[4] = Mouse liver microsome (MLM) stability; format: in vitro ADME; conditions: microsomal stability in mouse liver microsomes (MLM)
Method: A first pharmacokinetic study was performed in microsomes of mice mouse liver microsomes, MLM).
Microsomal stability experiments and plasma stability experiments were performed to determine metabolic and hepatic stability of candidate compounds.

potassium channel hERG = potassium channel hERG (Homo sapiens (Human), UniProt Q12809); assay: In vitro testing for hERG inhibition; format: biochemical; conditions: in vitro toxicity potassium channel hERG
potassium channel hERG, sequence (Q12809 whole entry): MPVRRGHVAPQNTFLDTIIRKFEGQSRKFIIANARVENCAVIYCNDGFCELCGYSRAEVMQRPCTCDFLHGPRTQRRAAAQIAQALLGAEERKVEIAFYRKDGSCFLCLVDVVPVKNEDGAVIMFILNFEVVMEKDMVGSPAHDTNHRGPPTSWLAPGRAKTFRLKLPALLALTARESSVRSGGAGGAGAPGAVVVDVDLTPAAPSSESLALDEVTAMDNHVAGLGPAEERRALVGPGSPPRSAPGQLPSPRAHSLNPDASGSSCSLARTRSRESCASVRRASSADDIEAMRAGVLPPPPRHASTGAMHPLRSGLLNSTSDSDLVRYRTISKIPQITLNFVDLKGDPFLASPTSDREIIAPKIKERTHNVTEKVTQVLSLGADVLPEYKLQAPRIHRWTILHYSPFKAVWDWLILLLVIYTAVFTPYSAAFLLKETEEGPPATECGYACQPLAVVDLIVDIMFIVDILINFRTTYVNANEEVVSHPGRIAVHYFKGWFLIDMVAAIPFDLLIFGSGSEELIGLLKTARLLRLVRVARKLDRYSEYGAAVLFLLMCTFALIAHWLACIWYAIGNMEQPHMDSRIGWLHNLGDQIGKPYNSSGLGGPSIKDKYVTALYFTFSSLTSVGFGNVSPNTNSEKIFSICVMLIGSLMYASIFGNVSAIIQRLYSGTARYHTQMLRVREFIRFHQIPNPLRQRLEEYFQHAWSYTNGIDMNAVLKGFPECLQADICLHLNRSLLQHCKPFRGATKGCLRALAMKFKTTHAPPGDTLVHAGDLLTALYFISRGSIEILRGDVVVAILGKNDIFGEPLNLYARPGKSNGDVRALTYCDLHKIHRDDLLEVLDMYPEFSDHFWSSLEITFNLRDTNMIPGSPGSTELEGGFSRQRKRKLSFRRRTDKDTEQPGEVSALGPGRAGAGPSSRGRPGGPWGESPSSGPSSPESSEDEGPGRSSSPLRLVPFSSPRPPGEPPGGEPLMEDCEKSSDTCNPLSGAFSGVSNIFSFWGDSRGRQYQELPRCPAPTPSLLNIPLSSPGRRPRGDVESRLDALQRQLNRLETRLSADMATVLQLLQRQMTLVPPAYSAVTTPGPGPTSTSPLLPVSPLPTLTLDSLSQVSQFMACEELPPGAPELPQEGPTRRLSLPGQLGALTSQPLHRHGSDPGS
Method: In vitro testing for hERG inhibition was performed in a standard assay (See: Haverkamp W, Breithardt G, Carnm A J, Janse M J, Rosen M R, Antzelevitch C, Escande D, Franz M, Malik M, Moss A and Shah R. (2000) Eur Heat J 21 (15); 1216-31).

log P = format: physicochemical
Procedure, shortened: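 Ratio of un-ionized compound concentrations between octanol and water, with aqueous pH set so the un-ionized form predominates. Value given as the log of the octanol/water ratio.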

Sigma-1 receptors on Jurkat cell membranes, sequence (Q99720 whole entry): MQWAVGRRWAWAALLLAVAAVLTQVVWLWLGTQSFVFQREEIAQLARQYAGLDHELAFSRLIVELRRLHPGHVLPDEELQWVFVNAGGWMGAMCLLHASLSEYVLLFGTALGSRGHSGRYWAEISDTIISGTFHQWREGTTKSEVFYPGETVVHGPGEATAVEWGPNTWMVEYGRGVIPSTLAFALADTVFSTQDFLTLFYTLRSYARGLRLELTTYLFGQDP

Work on `CC(C)=CC(CC(C)(C)c1ccc(Cl)cc1)N1CCC(C)(O)CC1` (stereo not drawn) [Compound 73] yielded a Ki [1] of 29 nM, a Ki [2] of 410 nM and an EC50 [3] of 700 nM. For the same molecule, the “MLM T1/2” value [4] was 87 min, the IC50 (potassium channel hERG) was 24000 nM and the “log P” value (log P) was 4.86.

With `CC(C)=CC(CC(C)(C)c1ccc(C(F)(F)F)cc1)N1CCOCC1` (stereo not drawn) [Compound 72] the Ki [1] was 770 nM, the Ki [2] was 400 nM and the EC50 [3] was 20000 nM. For the same molecule, the “MLM T1/2” value [4] was 2.1 min, the IC50 (potassium channel hERG) was 80000 nM and the “log P” value (log P) was 5.32.

For `CC(C)=CC(CC(C)(C)c1ccc(Cl)cc1)N1CCC(O)CC1` (stereo not drawn) [Compound 77], the Ki [1] was 540 nM, the Ki [2] was 800 nM and the EC50 [3] was 20000 nM. The “MLM T1/2” value [4] was 44 min, the IC50 (potassium channel hERG) was 15200 nM and the “log P” value (log P) was 4.58.

In the case of `CC(C)=CC(CC(C)(C)c1ccc(C(F)(F)F)cc1)N1CCC(C(F)(F)F)CC1` (stereo not drawn) [Compound 70], the Ki [1] is reported as 33 nM, the Ki [2] is reported as 340 nM and the EC50 [3] is reported as 20000 nM. For the same molecule, the “MLM T1/2” value [4] was 14 min, the IC50 (potassium channel hERG) was 16300 nM and the “log P” value (log P) was 6.95.

For `CC(C)=CC(CC(C)(C)c1ccc(Cl)cc1)N1CCC(C)(C)CC1` (stereo not drawn) [Compound 31], the Ki [1] was 41 nM, the Ki [2] was 28 nM and the EC50 [3] was 700 nM. The “MLM T1/2” value [4] was 21 min, the IC50 (potassium channel hERG) was 10900 nM and the “log P” value (log P) was 6.7.

In the case of `CC(C)=CC(CC(C)(C)c1ccc(F)cc1)N1CCC2(CCOCC2)CC1` (stereo not drawn) [Compound 36], the Ki [1] is reported as 12 nM, the Ki [2] is reported as 40 nM and the EC50 [3] is reported as 20000 nM. For the same molecule, the “MLM T1/2” value [4] was 25 min, the IC50 (potassium channel hERG) was 10000 nM and the “log P” value (log P) was 5.41.

`CC(C)=CC(CC(C)(C)c1ccc(C(F)(F)F)cc1)N1CCC(C2CCOCC2)CC1` (stereo not drawn) [Example 9] showed a Ki [1] of 13 nM, a Ki [2] of 1.8 nM and an EC50 ([3]; Rattus norvegicus, Hippocampal neuron) of 500 nM. It also gave a half-life ([4]; read-out: MLM T1/2) of 114 min, an IC50 (potassium channel hERG) of 1000 nM and a logP (log P; octanol/water) of 6.58.

Molecule `CC(C)=CC(CCc1ccc(F)cc1)N1CCC(C2CCOCC2)CC1` (stereo not drawn) [Compound 21] has a Ki [1] of 8 nM, a Ki [2] of 6.2 nM and an EC50 [3] of 20000 nM. The “MLM T1/2” value [4] was 11 min, the IC50 (potassium channel hERG) was 830 nM and the “log P” value (log P) was 5.26.

`CC(C)=CC(CC(C)(C)c1ccc(Cl)cc1)N1CCC(CCO)CC1` (stereo not drawn) [Compound 53] showed a Ki [1] of 74 nM, a Ki [2] of 110 nM and an EC50 [3] of 20000 nM. For the same molecule, the “MLM T1/2” value [4] was 28 min, the IC50 (potassium channel hERG) was 13300 nM and the “log P” value (log P) was 5.41.

With `COCCCC1CCN(C(C=C(C)C)CC(C)(C)c2ccc(Cl)cc2)CC1` (stereo not drawn) [Compound 23] the Ki [1] was 140 nM, the Ki [2] was 9.2 nM and the EC50 [3] was 950 nM. The “MLM T1/2” value [4] was 8.2 min, the IC50 (potassium channel hERG) was 2200 nM and the “log P” value (log P) was 6.49.

For `CC(C)=CC(CC(C)(C)c1ccc(S(C)(=O)=O)cc1)N1CCC2(CCOCC2)CC1` (stereo not drawn) [Compound 82], the Ki [1] was 380 nM, the Ki [2] was 2800 nM and the EC50 [3] was 20000 nM. For the same molecule, the “MLM T1/2” value [4] was 60 min, the IC50 (potassium channel hERG) was 100000 nM and the “log P” value (log P) was 4.11.

Molecule `CC(C)=CC(CC(C)(C)c1ccc(Cl)cc1)N1CCC(F)CC1` (stereo not drawn) [Compound 55] has a Ki [1] of 25 nM, a Ki [2] of 120 nM and an EC50 [3] of 2500 nM. The “MLM T1/2” value [4] was 3.6 min, the IC50 (potassium channel hERG) was 7200 nM and the “log P” value (log P) was 5.47.

`CC(C)=CC(CC(C)(C)c1ccc(C(F)(F)F)cc1)N1CCCCC1` (stereo not drawn) [Compound 61] showed a Ki [1] of 160 nM, a Ki [2] of 230 nM and an EC50 [3] of 4700 nM. The “MLM T1/2” value [4] was 53 min, the IC50 (potassium channel hERG) was 7300 nM and the “log P” value (log P) was 6.38.

In the case of `CC(C)=CC(CC(C)(C)c1ccc(F)cc1)N1CCC(CCO)CC1` (stereo not drawn) [Compound 58], the Ki [1] is reported as 64 nM, the Ki [2] is reported as 160 nM and the EC50 [3] is reported as 500 nM. The “MLM T1/2” value [4] was 39 min, the IC50 (potassium channel hERG) was 14000 nM and the “log P” value (log P) was 4.94.

Molecule `CC(C)=CC(CC(C)(C)c1ccc(F)cc1)N1CCCCC1` (stereo not drawn) [Compound 68] has a Ki [1] of 500 nM, a Ki [2] of 300 nM and an EC50 [3] of 20000 nM. For the same molecule, the “MLM T1/2” value [4] was 11 min, the IC50 (potassium channel hERG) was 27000 nM and the “log P” value (log P) was 5.65.

Work on `CC(C)=CC(CC(C)(C)c1ccc(Cl)cc1)N1CCC(C2CCN(C)CC2)CC1` (stereo not drawn) [Compound 43] yielded a Ki [1] of 61 nM, a Ki [2] of 74 nM and an EC50 [3] of 300 nM. For the same molecule, the “MLM T1/2” value [4] was 29 min, the IC50 (potassium channel hERG) was 4900 nM and the “log P” value (log P) was 6.37.

For `CC(C)=CC(CC(C)(C)c1ccc(F)cc1)N1CCC(C)(O)CC1` (stereo not drawn) [Compound 62], the Ki [1] was 130 nM, the Ki [2] was 230 nM and the EC50 [3] was 800 nM. The “MLM T1/2” value [4] was 60 min, the IC50 (potassium channel hERG) was 41000 nM and the “log P” value (log P) was 4.4.

`CC(C)=CC(CC(C)(C)c1ccc(C(F)(F)F)cc1)N1CCC(CCO)CC1` (stereo not drawn) [Compound 28] gave a Ki [1] of 6.1 nM, a Ki [2] of 18 nM and an EC50 [3] of 4000 nM. The “MLM T1/2” value [4] was 60 min, the IC50 (potassium channel hERG) was 10200 nM and the “log P” value (log P) was 5.68.

`CC(C)=CC(CC(C)(C)c1ccc(Cl)cc1)N1CCC2(CCOCC2)CC1` (stereo not drawn) [Compound 41] gave a Ki [1] of 16 nM, a Ki [2] of 67 nM and an EC50 [3] of 1600 nM. For the same molecule, the “MLM T1/2” value [4] was 35 min, the IC50 (potassium channel hERG) was 4000 nM and the “log P” value (log P) was 5.87.
